Results from PMC10436493, “Unveiling the antitumor potential of novel N-(substituted-phenyl)-8-methoxycoumarin-3-carboxamides as dual inhibitors of VEGFR2 kinase and cytochrome P450 for targeted treatment of hepatocellular carcinoma” (Frontiers in Chemistry, 2023).
Like-named read-outs stand apart in the source and are kept apart here. One block for each molecule: values may come before it.

Assays:
[1] = test system: human liver carcinoma HepG2 cell line; experiment: MTT cytotoxicity assay on liver cancer cells; type: cell-based; details: 24 h treatment
Experimental: Toward this, the HepG-2 cells were cultured and treated with tested compounds at different concentrations for 24 h and subsequently 3-(4,5-dimethylthiazol-2-yl)-2,5-diphenyltetrazolium bromide (MTT) dye was added. The colorimetric measurement was assessed using an ELISA plate reader at a wavelength of 570 nm.
Following this initial incubation period, the cells were exposed to varying concentrations of the synthesized compounds. The concentrations may have ranged from a lower to higher dose, depending on the experimental design. The molecules were dissolved in an appropriate solvent, DMSO, to obtain the desired concentrations. Control wells with no drug treatment were also included. […] The duration of the incubation may have varied depending on the specific experimental requirements. At the end of the 24-h treatment, (3-(4,5-dimethylthiazol-2-yl)-2,5-diphenyltetrazolium bromide) MTT dye was added to each well. MTT is a yellow tetrazolium salt that is utilized by metabolically active cells and converted into purple formazan crystals by mitochondrial enzymes in viable cells. […] DMSO is a common solvent used to dissolve the formazan crystals and extract the intracellular purple product. The plate was then subjected to colorimetric measurement using an ELISA plate reader at a wavelength of 570 nm. The intensity of the purple color is proportional to the number of viable cells and reflects the growth condition of the cells in each well. The results were analyzed by calculating the percentage of cell viability or cell growth inhibition compared to the control wells. […] The experiments were performed with at least three replicates for each concentration, and the entire experiment was repeated at least three times to ensure the reliability of the results.

[2] = molecular target: CYP2D6 (Homo sapiens, UniProt P10635)
Experimental: Human cells, obtained from the American Type Culture Collection (ATCC), were cultivated in RPMI medium (Invitrogen/Life Technologies). The medium was supplemented with 1% penicillin-streptomycin, 10 μg/ml of insulin (Sigma), and to support cell growth and 10% Fetal Bovine Serum (FBS) (Hyclone) viability. […] Cells were seeded into a 96-well plate at a density of 1.2–1.8 × 10,000 cells/well in a volume of 100 μL of complete growth medium. […] Each concentration was tested in triplicate. A control well with only complete growth medium was included as a negative control. […] The culture media was quickly withdrawn, and the cultured cells were rinsed with PBS. […] After the incubation, the fluorescence intensity of the converted product was measured using a FLx800™ Fluorescence Microplate Reader at the excitation wavelength of 390 nm and the emission wavelength of 488 nm. […] The data were analyzed for statistical significance and presented as mean ± standard deviation (SD) from triplicate measurements.

[3] = molecular target: T1, VEGFR-2 (Homo sapiens, UniProt P35968); experiment: VEGFR-2 ELISA assay; type: cell-based
T1 construct: ability to target the VEGFR-2 receptor inHep-G2 cells; endogenous in cells; host or cells: Hep-G2
Experimental: A 96-well plate was used for the assay, and each well was filled with a specific volume of the tested molecules and standard concentrations. The wells were coated with an immobilized antibody that specifically binds to VEGFR-2. After incubation, the wells were washed to remove unbound molecules, and biotinylated anti-human VEGFR-2 antibody was added to the wells. This biotinylated antibody specifically binds to VEGFR-2 that is captured by the immobilized antibody. Following another round of washing, a solution of conjugated streptavidin, which binds to the biotinylated antibody, was added to the wells. […] During this incubation, the bound conjugated streptavidin transformed the substrate into a colorful product. After terminating the reaction with an inhibitor solution, the optical density of the produced color was instantly determined at 450 nm with a spectrophotometer.

[4] = test system: HepG-2 cells; experiment: Annexin V-FITC/PI apoptosis assay; type: cell-based, human
Experimental: The Annexin V-FITC/PI assay is a well-established flow cytometric method to evaluate the apoptotic potential of bioactive compounds. The assay allows differentiation between apoptotic cells and live cells by using fluorescent dyes that bind to phosphatidylserine (PS) and DNA, respectively ([Galluzzi et al., 2018]; [Pfeffer and Singh, 2018]; [Tong et al., 2022]). In the present study, the assay was performed to explore the apoptotic effect of compound 7 (at its IC50 dose value) on HepG-2 cells. […] The Annexin V-FITC/PI assay is a well-established method to evaluate the apoptotic potential of chemical compounds. Inducing apoptosis is an appealing therapeutic approach for cancer treatment as it is a vital cellular process essential for preserving tissue balance and removing impaired or unnecessary cells. Disruption in the regulation of apoptosis can contribute to various diseases, such as cancer, highlighting its significance. […] The early stage of apoptosis is characterized by the translocation of PS from the inner to the outer leaflet of the plasma membrane, which can be detected by Annexin V-FITC staining. […] Further, the late stage of apoptosis is characterized by DNA fragmentation, which can be detected by PI staining. […] According to these findings, there is a notable connection between the ability of compound 7 to induce programmed cell death in HepG-2 cells and its antiproliferative effects.
The experimental method involved seeding HepG-2 cells at a density of 1.5 × 10^5 cells per well in a 6-well plate and incubating the cells for 12 h to allow for cell attachment and growth. Following this, the cells were treated with compound 7 at its IC50 concentration for 24 h to induce apoptosis. Apoptosis, a programmed cell death process, was detected by staining the cells with Annexin-V conjugated to fluorescein isothiocyanate (FITC) and Propidium Iodide (PI), and the stained cells were analyzed using a FACSCalibur cytometer and Cellquest software (BD Bioscience). Annexin-V is a protein that binds specifically to phosphatidylserine, a phospholipid that is externalized on the outer surface of the plasma membrane during early stages of apoptosis. FITC, a green-fluorescent dye conjugated to Annexin-V, is used to label the apoptotic cells. PI, a red-fluorescent DNA intercalating agent, is used to distinguish between apoptotic and necrotic cells based on their DNA content. The FACSCalibur cytometer is a flow cytometer used to analyze and quantify fluorescently labeled cells. The experimental method likely allowed for the quantification of apoptotic cells by analyzing the Annexin-V-FITC and PI staining patterns using flow cytometry. The results obtained from this method provided information on the induction of apoptosis by compound 7 in HepG-2 cells, further elucidating the mechanism of action of this compound as a potential anticancer agent. To ensure the reliability of the results, the experimental conditions were repeated at least three times, and the cells were exposed to therapeutically effective concentration of the compound, they were treated with compound 7 at a dose corresponding to its IC50 concentration. This ensured that the cells were subjected to an optimal concentration of the compound during the experiment. This experimental method yielded crucial information on the mechanism by which it exerts its anticancer effects.

[5] = test system: HL-7702 normal cell line; experiment: MTT cytotoxicity assay on normal liver cells; type: cell-based; details: Homo sapiens, L02, 24 h treatment
Experimental: Following this initial incubation period, the cells were exposed to varying concentrations of the synthesized compounds. The concentrations may have ranged from a lower to higher dose, depending on the experimental design. The molecules were dissolved in an appropriate solvent, DMSO, to obtain the desired concentrations. Control wells with no drug treatment were also included. […] The duration of the incubation may have varied depending on the specific experimental requirements. At the end of the 24-h treatment, (3-(4,5-dimethylthiazol-2-yl)-2,5-diphenyltetrazolium bromide) MTT dye was added to each well. MTT is a yellow tetrazolium salt that is utilized by metabolically active cells and converted into purple formazan crystals by mitochondrial enzymes in viable cells. […] DMSO is a common solvent used to dissolve the formazan crystals and extract the intracellular purple product. The plate was then subjected to colorimetric measurement using an ELISA plate reader at a wavelength of 570 nm. The intensity of the purple color is proportional to the number of viable cells and reflects the growth condition of the cells in each well. The results were analyzed by calculating the percentage of cell viability or cell growth inhibition compared to the control wells. […]

[6] = test system: HepG-2 cells; experiment: Cell cycle analysis by DNA flow cytometry (PI staining); type: cell-based, human; details: HepG-2, compound at IC50 (0.75 µM), 24 h
Experimental: Based on this promising activity, compound 7 was selected for further evaluation to assess its effect on the cell cycle profile in HepG-2 cells. To evaluate the cell cycle, a biparametric cytofluorimetric analysis was conducted on HepG-2 cells treated with compound 7 at its IC50 concentration for a duration of 24 h. Propidium iodide (PI) was used as the staining agent for this analysis. (Figure 5). […] Similarly, the percentage of cells in the G2/M phase decreased from 11.46% in the control group to 6.4% after treatment with compound 7. In contrast, there was a notable increase in the percentage of cells in the S phase after treatment with Compound 7. […] These findings indicate that the treatment of HepG-2 cells with compound 7 leads to cell cycle arrest specifically in the S phase. This is evident from the decrease in the proportion of cells in the G1 and G2/M phases, accompanied by an increase in the percentage of cells residing in the S phase. Cell cycle arrest is a widely recognized mechanism utilized by anticancer agents to impede the excessive proliferation of cancer cells. By inducing cell cycle arrest, these agents disrupt the normal progression of the cell cycle, preventing cancer cells from dividing and multiplying uncontrollably. This therapeutic strategy helps to halt tumor growth and promotes the effectiveness of cancer treatments. The observed effects of compound 7 on the cell cycle profile of HepG-2 cells are indicative of its potential as an antitumor agent. […] Furthermore, the increase in the percentage of cells in the S phase upon treatment with Compound 7 may indicate DNA damage and activation of DNA repair mechanisms, which can contribute to the observed S phase arrest.
HepG-2 cells were seeded in […] at a density of 3.0 × 10^5 cells per well and incubated at 37°C for 12 h to allow cell attachment and growth. After the initial incubation, the cells were treated with compound 7 at its IC50 concentration dose value for 24 h. […] Flow cytometry analysis measures the fluorescence emitted by the cells stained with PI, which correlates with the DNA content. […]

[7] = test system: HepG-2 cells; set-up: method as in Fayed et al., 2019; details: ref Fayed et al., 2019; read-out: IC50, cytotoxic activity against HepG-2 cells; cited from earlier work

Chain of CYP2D6 (P10635 whole entry): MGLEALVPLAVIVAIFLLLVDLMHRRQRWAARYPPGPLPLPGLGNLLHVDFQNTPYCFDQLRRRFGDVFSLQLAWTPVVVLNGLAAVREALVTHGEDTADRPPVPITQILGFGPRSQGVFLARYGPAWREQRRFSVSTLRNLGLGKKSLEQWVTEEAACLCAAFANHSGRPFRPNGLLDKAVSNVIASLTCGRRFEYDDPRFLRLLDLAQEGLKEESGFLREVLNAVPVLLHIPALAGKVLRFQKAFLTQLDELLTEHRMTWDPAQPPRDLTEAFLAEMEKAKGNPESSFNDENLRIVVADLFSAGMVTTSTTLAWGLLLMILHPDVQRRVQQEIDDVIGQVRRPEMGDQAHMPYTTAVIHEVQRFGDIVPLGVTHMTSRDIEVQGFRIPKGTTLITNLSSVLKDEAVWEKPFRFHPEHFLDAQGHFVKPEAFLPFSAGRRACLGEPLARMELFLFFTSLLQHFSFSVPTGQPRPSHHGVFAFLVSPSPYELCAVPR
T1 sequence (P35968 20-1356): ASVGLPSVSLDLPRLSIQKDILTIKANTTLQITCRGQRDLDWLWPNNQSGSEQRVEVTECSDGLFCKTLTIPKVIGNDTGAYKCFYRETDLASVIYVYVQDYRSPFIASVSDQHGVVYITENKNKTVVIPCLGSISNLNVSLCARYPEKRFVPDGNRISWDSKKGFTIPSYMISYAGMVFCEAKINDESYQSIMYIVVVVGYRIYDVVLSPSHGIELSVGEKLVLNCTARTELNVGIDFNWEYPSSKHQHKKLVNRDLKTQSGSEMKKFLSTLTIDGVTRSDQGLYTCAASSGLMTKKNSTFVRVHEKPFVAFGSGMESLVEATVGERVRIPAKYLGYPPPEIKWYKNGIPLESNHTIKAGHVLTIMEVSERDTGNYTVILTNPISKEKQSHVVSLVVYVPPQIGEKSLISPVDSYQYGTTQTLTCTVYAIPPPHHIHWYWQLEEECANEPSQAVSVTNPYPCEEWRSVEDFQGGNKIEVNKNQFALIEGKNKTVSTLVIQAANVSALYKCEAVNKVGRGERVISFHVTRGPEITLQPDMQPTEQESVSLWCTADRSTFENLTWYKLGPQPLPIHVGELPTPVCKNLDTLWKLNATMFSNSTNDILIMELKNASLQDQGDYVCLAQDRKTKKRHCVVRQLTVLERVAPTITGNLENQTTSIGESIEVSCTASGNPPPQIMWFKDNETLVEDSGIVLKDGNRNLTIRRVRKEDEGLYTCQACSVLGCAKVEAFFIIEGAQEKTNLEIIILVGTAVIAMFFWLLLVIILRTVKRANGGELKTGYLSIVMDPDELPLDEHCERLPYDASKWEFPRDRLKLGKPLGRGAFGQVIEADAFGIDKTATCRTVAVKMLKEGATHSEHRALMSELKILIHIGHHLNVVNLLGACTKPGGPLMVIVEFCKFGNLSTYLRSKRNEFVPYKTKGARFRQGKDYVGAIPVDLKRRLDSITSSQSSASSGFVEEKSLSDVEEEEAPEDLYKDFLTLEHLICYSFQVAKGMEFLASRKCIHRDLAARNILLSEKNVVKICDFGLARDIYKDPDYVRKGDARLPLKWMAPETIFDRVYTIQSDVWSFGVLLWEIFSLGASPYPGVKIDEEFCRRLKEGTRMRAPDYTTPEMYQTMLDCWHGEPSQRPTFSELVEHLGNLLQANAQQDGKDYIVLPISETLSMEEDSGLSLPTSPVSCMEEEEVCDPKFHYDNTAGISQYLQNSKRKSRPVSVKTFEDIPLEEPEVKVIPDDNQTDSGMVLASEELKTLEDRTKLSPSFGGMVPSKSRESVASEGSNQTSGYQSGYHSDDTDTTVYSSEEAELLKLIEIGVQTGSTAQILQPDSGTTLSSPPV

melting point: 255 °C
SMILES: COc1ccc(Br)c2cc(C(=O)Nc3cccc(O)c3)c(=O)[nH]c12 [Compound 8, N-(3-hydroxy)phenyl 5-bromo-8-methoxy-azacoumarin-3-carboxamide]
IC50 [1]: 4.79 ± 0.2 µM

SMILES: COc1ccc(Br)c2cc(C(=O)Nc3cccc(OC(C)=O)c3)c(=O)oc12 [Compound 6, N-(3-acetoxy)phenyl 5-bromo-8-methoxycoumarin-3-carboxamide]
melting point: 205 °C | IC50 [1]: 13.4 ± 0.56 µM

SMILES: CN[C@@H]1C[C@H]2O[C@@](C)([C@@H]1OC)n1c3ccccc3c3c4c(c5c6ccccc6n2c5c31)C(=O)NC4 [STU, staurosporine, reference compound]
IC50 ([2]; human): 70.3 µg/mL

SMILES: COc1cccc2cc(C(=O)Nc3cccc(O)c3)c(=O)[nH]c12 [Compound 7, N-(3-hydroxy)phenyl 8-methoxy-azacoumarin-3-carboxamide]
VEGFR2 protein level ([3]; Hep-G2 cells, untreated 3,007 pg/mL): 1,086 pg/mL | IC50 ([3]; summary graph, read-out: Angiogensis inhibtion IC50 (Figure 10) (converted)): 110 µM | fold increase of early apoptotic cells vs control ([4]; HepG-2, compound at IC50): 45 fold | fold increase of late apoptotic cells vs control ([4]; HepG-2, compound at IC50): 73 fold | fold increase of necrosis vs control ([4]; HepG-2, compound at IC50): 2.5 fold | fold increase of total apoptotic cells vs control ([4]; HepG-2, compound at IC50): 23 fold | percentage of apoptotic cells, late stage ([4]; HepG-2, compound at IC50 (0.75 µM), 24 h, control 0.21%): 15.34% | percentage of apoptotic cells, early stage ([4]; HepG-2, compound at IC50 (0.75 µM), 24 h, control 0.55%): 24.72% | IC50 [5]: 13.7 ± 1.8 µM | IC50 [2]: 110 µM | fold more potent than standard staurosporin toward CYP2D6 [2]: 2.1 fold | percentage of cells in the G2/M phase ([6]; untreated control 11.46%): 6.4% | percentage of cells in the S phase ([6]; untreated control 42.19%): 54.52% | percentage of cells in the G1 phase ([6]; untreated control 46.35%): 39.08% | IC50 [1]: 0.75 ± 0.03 µM

melting point: 289 °C
SMILES: COc1ccc(Br)c2cc(C(=O)Nc3cccc(O)c3)c(=O)oc12 [Compound 4, N-(3-hydroxy)phenyl 5-bromo-8-methoxycoumarin-3-carboxamide]
IC50 [1]: 38.3 ± 1.62 µM

SMILES: COc1ccc(-c2cc(-c3cc4ccccc4oc3=O)nc(NC(C)=O)c2C#N)cc1 [Compound 11]
IC50 [7]: 4.5 µM

melting point: 256 °C
SMILES: COc1cccc2cc(C(=O)Nc3cccc(O)c3)c(=O)oc12 [Compound 3, N-(3-hydroxy)-phenyl 8-methoxycoumarin-3-carboxamide]
IC50 [1]: 3.81 ± 0.16 µM
